Test results from patent US7166636B2, “Indole-amid derivatives which possess glycogen phosphorylase inhibitory activity” (AstraZeneca AB, priority 2002, dated 2007).

Legend:
conscious dogs = conditions: following a glucagon challenge; cited from earlier work
hepatocytes = conditions: cited from earlier work; for glucose output: glucagon stimulated
db/db and ob/ob mice = db/db and ob/ob mice following treatment; cited from earlier work
[1] = molecular target: T1, Human recombinant liver glycogen phosphorylase a (hrl GPa) (Homo sapiens, UniProt P06737); experiment: Glycogen phosphorylase a inhibition, glycogen degradation, multienzyme coupled assay (NADH fluorescence); assay type: biochemical; conditions: hrl GPa 20 nM, 6 hours at 30° C.
T1 sequence (P06737 1-847): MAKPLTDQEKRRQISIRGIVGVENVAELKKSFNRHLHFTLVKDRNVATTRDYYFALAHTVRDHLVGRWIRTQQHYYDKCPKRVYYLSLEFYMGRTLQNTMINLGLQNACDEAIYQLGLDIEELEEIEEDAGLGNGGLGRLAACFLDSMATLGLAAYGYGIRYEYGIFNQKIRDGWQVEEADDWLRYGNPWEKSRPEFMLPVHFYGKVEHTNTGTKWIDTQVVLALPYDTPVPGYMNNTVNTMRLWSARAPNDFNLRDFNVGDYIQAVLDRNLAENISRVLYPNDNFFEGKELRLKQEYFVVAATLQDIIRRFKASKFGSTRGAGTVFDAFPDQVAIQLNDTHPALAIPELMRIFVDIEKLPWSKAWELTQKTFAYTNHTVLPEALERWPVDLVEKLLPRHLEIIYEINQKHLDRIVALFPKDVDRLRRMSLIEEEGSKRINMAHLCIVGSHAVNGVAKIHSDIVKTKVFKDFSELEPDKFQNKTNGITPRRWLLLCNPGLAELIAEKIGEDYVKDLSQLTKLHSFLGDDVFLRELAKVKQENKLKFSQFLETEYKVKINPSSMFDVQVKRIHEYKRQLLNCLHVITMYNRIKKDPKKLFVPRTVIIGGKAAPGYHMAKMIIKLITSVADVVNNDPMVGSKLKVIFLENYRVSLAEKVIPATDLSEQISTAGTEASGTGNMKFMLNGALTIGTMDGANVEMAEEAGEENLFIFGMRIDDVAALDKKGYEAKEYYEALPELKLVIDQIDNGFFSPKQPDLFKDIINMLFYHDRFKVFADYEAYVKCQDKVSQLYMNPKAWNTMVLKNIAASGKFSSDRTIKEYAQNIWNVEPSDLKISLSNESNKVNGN
Procedure: The activity of the compounds is alternatively determined by measuring the inhibitory effect of the compounds on glycogen degradation, the production of glucose-1-phosphate from glycogen is monitored by the multienzyme coupled assay, as described in EP 0 846 464 A2, general method of Pesce et al (Pesce, M A, Bodourian, S H, Harris, R C, and Nicholson, J F (1977) Clinical Chemistry 23, […]). The reactions were in 384 well microplate format in a volume of 50 μl. The change in fluorescence due to the conversion of the co-factor NAD to NADH is measured at 340 nm excitation, 465 nm emission in a Tecan Ultra Multifunctional Microplate Reader. The reaction is in 50 OmM HEPES, 3.5 mM KH2PO4, 2.5 mM MgCl2, 2.5 mM ethylene glycol-bis(b-aminoethyl ether) N,N,N′,N′-tetraacetic acid, 100 mM KCl, 8 mM D-(+)-glucose pH7.2, containing 0.5 mM dithiothreitol, the assay buffer solution. Human recombinant liver glycogen phosphorylase a (hrl GPa) 20 nM is pre-incubated in assay buffer solution with 6.25 mM NAD, 1.25 mg type III glycogen at 1.25 mg ml^−1 the reagent buffer, for 30 minutes. […] The non-inhibited activity of GPa is measured in the presence of 10 μl 5% DMSO in assay buffer solution and maximum inhibition measured in the presence of 5 mgs ml^−1 N-ethylmaleimide. […] Relative Fluoresence Units (RFUs) are measured at 340 nm excitation, 465 nm emission. […]

IC50 [1] [nM]	Compound	arterial plasma glucose (conscious dogs)	hepatic glucose output (conscious dogs)	glucagon stimulated glycogenolysis (hepatocytes)	glucose output (hepatocytes)	plasma glucose concentration (db/db and ob/ob mice)
	CCN1C(C)=C(C(=O)OC(C)C)C(c2ccccc2Cl)C2=C1COC2=O (stereo not drawn) [Bay R 3401]	reduced significantly	reduced significantly			
	CN(C)C(=O)[C@H](O)[C@H](Cc1ccccc1)NC(=O)c1cc2cc(Cl)ccc2[nH]1 [CP91149]			reduce	reduce	reduced, in a dose related manner
2400	COC(=O)c1ncoc1[C@H](Cc1ccccc1)NC(=O)c1cc2cc(Cl)ccc2[nH]1 [Example 1, Methyl (S)-5-{1-[(5-chloro-1H-indol-2-ylcarbonyl)amino]-2-phenylethyl}oxazole-4-carboxylate]					
	O=C(N[C@@H](Cc1ccc(F)cc1)C(=O)N1CCC(O)CC1)c1cc2cc(Cl)ccc2[nH]1 [CP320626]			reduce	reduce	reduced, in a dose related manner
